These results are taken from ChEMBL document CHEMBL1121590, “Synthesis and enzymatic and inotropic activity of some new 8-substituted and 6,8-disubstituted derivatives of adenosine cyclic 3',5'-monophosphate” (J Med Chem, 1980).

Each structure is given as a SMILES string.

Assay [1] is described as follows: Inhibition of cAMP phosphodiesterase preparation from rabbit lung at a substrate concentration of 0.14 uM.
The target in assay [2] is Phosphodiesterase 4 (Homo sapiens, UniProt P27815+Q08499+Q07343+Q08493). Particulars: Oryctolagus cuniculus; Kidney.
Description: Susceptibility to be hydrolysed by a partially purified cAMP phosphodiesterase from rabbit kidney

With `CC(C)CNc1ncnc2c1nc(Sc1ccc(Cl)cc1)n2[C@@H]1O[C@@H]2COP(=O)(O)O[C@H]2[C@H]1O`, in assay [1], the I50 stood at 1.2 µM. Besides, in assay [2], the Hydrolysis was less than 0.05.

In assay [1], `CCN(CC)c1ncnc2c1nc(Sc1ccc(Cl)cc1)n2[C@@H]1O[C@@H]2COP(=O)(O)O[C@H]2[C@H]1O` returned an I50 of 3.5 µM. The Hydrolysis in assay [2] is less than 0.05.

Consider `Nc1ncnc2c1nc(SCC(=O)[O-])n2[C@@H]1O[C@@H]2COP(=O)(O)O[C@H]2[C@H]1O.[Na+]`, for which the I50 in assay [1] stood at 400 µM. Besides, the Hydrolysis in assay [2] was less than 0.05.

As for `CCCCSc1nc2c(N)ncnc2n1[C@@H]1O[C@@H]2COP(=O)(O)O[C@H]2[C@H]1O`, the I50 in assay [1] was 25 µM. This molecule also gave a Hydrolysis in assay [2] of less than 0.05.

`CCCCNc1ncnc2c1nc(Br)n2[C@@H]1O[C@@H]2COP(=O)(O)O[C@H]2[C@H]1O`: the Hydrolysis in assay [2] is less than 0.05.

For `CC(C)Sc1nc2c(N)ncnc2n1[C@@H]1O[C@@H]2COP(=O)(O)O[C@H]2[C@H]1O`, the I50 in assay [1] was 56 µM. Besides, in assay [2], the Hydrolysis is less than 0.05.

Regarding `Nc1ncnc2c1nc(O)n2[C@@H]1O[C@@H]2COP(=O)(O)O[C@H]2[C@H]1O`, in assay [1], the I50 amounted to 150 µM. For the same molecule, the Hydrolysis in assay [2] was less than 0.05.

For `O=P1(O)OC[C@H]2O[C@@H](n3c(SCc4ccccc4)nc4c(NCc5ccccc5)ncnc43)[C@H](O)[C@@H]2O1`, the I50 in assay [1] worked out at 29 µM. The same molecule had a Hydrolysis in assay [2] of less than 0.05.

As for `CNc1ncnc2c1ncn2[C@@H]1O[C@@H]2COP(=O)(O)O[C@H]2[C@H]1O`, in assay [1], the I50 was 50 µM. In assay [2], this molecule came in with a Hydrolysis of 0.22.

In assay [1], `CSc1nc2c(N)ncnc2n1[C@@H]1O[C@@H]2COP(=O)(O)O[C@H]2[C@H]1O` returned an I50 of 69 µM. The same molecule gave a Hydrolysis in assay [2] of less than 0.05.

In assay [1], `Nc1ncnc2c1nc(SC1CCCCC1)n2[C@@H]1O[C@@H]2COP(=O)(O)O[C@H]2[C@H]1O` yielded an I50 of 13 µM. In assay [2], this molecule had a Hydrolysis of less than 0.05.

`CCCCCSc1nc2c(N)ncnc2n1[C@@H]1O[C@@H]2COP(=O)(O)O[C@H]2[C@H]1O` returned an I50 in assay [1] of 15 µM. The Hydrolysis in assay [2] was less than 0.05.

Turning to `O=P1(O)OC[C@H]2O[C@@H](n3cnc4c(SCc5ccccc5)ncnc43)[C@H](O)[C@@H]2O1`, the I50 in assay [1] was 25 µM. The Hydrolysis in assay [2] turned out to be 0.54.

`CCCCN(C)c1ncnc2c1nc(SCc1ccccc1)n2[C@@H]1O[C@@H]2COP(=O)(O)O[C@H]2[C@H]1O` showed a Hydrolysis in assay [2] of less than 0.05.

With `COc1ccc(Sc2nc3c(N)ncnc3n2[C@@H]2O[C@@H]3COP(=O)(O)O[C@H]3[C@H]2O)cc1`, in assay [1], the I50 turned out to be 48 µM. In addition, the Hydrolysis in assay [2] is less than 0.05.

For the molecule `CCCCCNc1ncnc2c1nc(SCc1ccccc1)n2[C@@H]1O[C@@H]2COP(=O)(O)O[C@H]2[C@H]1O`, the I50 in assay [1] came to 16 µM. The Hydrolysis in assay [2] was less than 0.05.

In turn, `CCN(CC)c1nc2c(Cl)ncnc2n1[C@@H]1O[C@@H]2COP(=O)(O)O[C@H]2[C@H]1O` gave an I50 in assay [1] of 80 µM. Moreover, in assay [2], the Hydrolysis amounted to 0.1.

In assay [1], `Nc1ncnc2c1nc(Sc1ccc(Br)cc1)n2[C@@H]1O[C@@H]2COP(=O)(O)O[C@H]2[C@H]1O` came in with an I50 of 240 µM. The Hydrolysis in assay [2] was less than 0.05.

Regarding `Cc1ccccc1CSc1nc2c(N)ncnc2n1[C@@H]1O[C@@H]2COP(=O)(O)O[C@H]2[C@H]1O`, the I50 in assay [1] stood at 33 µM. This molecule also had a Hydrolysis in assay [2] of less than 0.05.

In the case of `O=P1(O)OC[C@H]2O[C@@H](n3cnc4c(=S)[nH]cnc43)[C@H](O)[C@@H]2O1`, the I50 in assay [1] came to 53 µM. The molecule also came in with a Hydrolysis in assay [2] of 1.1.

Take `O=P1(O)OC[C@H]2O[C@@H](n3c(SCc4ccccc4)nc4c(SCc5ccccc5)ncnc43)[C@H](O)[C@@H]2O1`: the I50 in assay [1] stood at 4.6 µM. For the same molecule, the Hydrolysis in assay [2] is less than 0.05.

For the molecule `O=P1(O)OC[C@H]2O[C@@H](n3cnc4c(Cl)ncnc43)[C@H](O)[C@@H]2O1`, the I50 in assay [1] turned out to be 20 µM. In addition, the Hydrolysis in assay [2] turned out to be 1.2.

For `O=P1(O)OC[C@H]2O[C@@H](n3c(Sc4ccc(Cl)cc4)nc4c(Nc5ccccc5)ncnc43)[C@H](O)[C@@H]2O1`, the I50 in assay [1] turned out to be 36 µM. This molecule showed a Hydrolysis in assay [2] of less than 0.05.

In turn, `CSc1ncnc2c1nc(SC)n2[C@@H]1O[C@@H]2COP(=O)(O)O[C@H]2[C@H]1O` gave an I50 in assay [1] of 50 µM. In addition, in assay [2], the Hydrolysis was less than 0.05.

In assay [1], `Nc1ncnc2c1nc(SCc1ccccc1)n2[C@@H]1O[C@@H]2COP(=O)(O)O[C@H]2[C@H]1O` returned an I50 of 53 µM. Also, the Hydrolysis in assay [2] is less than 0.05.

In assay [1], `CCN(CC)c1ncnc2c1nc(Cl)n2[C@@H]1O[C@@H]2COP(=O)(O)O[C@H]2[C@H]1O` registered an I50 of 18 µM. In assay [2], the Hydrolysis is 0.1.

In assay [2], `Nc1ncnc2c1nc(Br)n2[C@@H]1O[C@@H]2COP(=O)(O)O[C@H]2[C@H]1O` displayed a Hydrolysis of less than 0.05.

As for `Nc1ncnc2c1nc(SCCO)n2[C@@H]1O[C@@H]2COP(=O)(O)O[C@H]2[C@H]1O`, the I50 in assay [1] stood at 20 µM. Moreover, the Hydrolysis in assay [2] was less than 0.05.

`Nc1ncnc2c1nc(Cl)n2[C@@H]1O[C@@H]2COP(=O)(O)O[C@H]2[C@H]1O` [TOCLADESINE] registered an I50 in assay [1] of 59 µM. The Hydrolysis in assay [2] is less than 0.05.

`CCCSc1nc2c(N)ncnc2n1[C@@H]1O[C@@H]2COP(=O)(O)O[C@H]2[C@H]1O` had an I50 in assay [1] of 37 µM. For the same molecule, in assay [2], the Hydrolysis was less than 0.05.

Consider `CCNc1ncnc2c1ncn2[C@@H]1O[C@@H]2COP(=O)(O)O[C@H]2[C@H]1O`, for which the I50 in assay [1] was 400 µM. The molecule also came in with a Hydrolysis in assay [2] of 0.2.

In turn, `O=P1(O)OC[C@H]2O[C@@H](n3c(SCc4ccccc4)nc4c(N5CCCC5)ncnc43)[C@H](O)[C@@H]2O1` gave an I50 in assay [1] of 5 µM. In assay [2], this molecule returned a Hydrolysis of less than 0.05.

As for `O=c1[nH]c2c(Cl)ncnc2n1[C@@H]1O[C@@H]2COP(=O)(O)O[C@H]2[C@H]1O`, the I50 in assay [1] is greater than 400 µM. This molecule also gave a Hydrolysis in assay [2] of less than 0.05.

`Nc1ncnc2c1nc(Sc1ccc(Cl)cc1)n2[C@@H]1O[C@@H]2COP(=O)(O)O[C@H]2[C@H]1O`: in assay [2], the Hydrolysis is less than 0.05.

Regarding `Nc1nc2c(=S)[nH]cnc2n1[C@@H]1O[C@@H]2COP(=O)(O)O[C@H]2[C@H]1O`, the I50 in assay [1] came out at 83 µM. Also, the Hydrolysis in assay [2] was 0.3.

Molecule `C=CCSc1nc2c(N)ncnc2n1[C@@H]1O[C@@H]2COP(=O)(O)O[C@H]2[C@H]1O` returned an I50 in assay [1] of 29 µM. The Hydrolysis in assay [2] is less than 0.05.

With `Nc1ncnc2c1nc(SCc1ccc(F)cc1)n2[C@@H]1O[C@@H]2COP(=O)(O)O[C@H]2[C@H]1O`, the I50 in assay [1] was 38 µM. Besides, the Hydrolysis in assay [2] is less than 0.05.

As for `CCN(CC)c1ncnc2c1ncn2[C@@H]1O[C@@H]2COP(=O)(O)O[C@H]2[C@H]1O`, the I50 in assay [1] stood at 67 µM. The same molecule displayed a Hydrolysis in assay [2] of 0.09.

In assay [1], `Nc1ncnc2c1nc(SCc1ccc([N+](=O)[O-])cc1)n2[C@@H]1O[C@@H]2COP(=O)(O)O[C@H]2[C@H]1O` returned an I50 of 27 µM. In assay [2], this molecule returned a Hydrolysis of less than 0.05.

In assay [1], `CCCCNc1ncnc2c1nc(SC)n2[C@@H]1O[C@@H]2COP(=O)(O)O[C@H]2[C@H]1O` came in with an I50 of 53 µM. This molecule came in with a Hydrolysis in assay [2] of 0.26.

For the molecule `Nc1ncnc2c1nc(N)n2[C@@H]1O[C@@H]2COP(=O)(O)O[C@H]2[C@H]1O`, in assay [1], the I50 was determined as 83 µM. The molecule also returned a Hydrolysis in assay [2] of 0.8.

On to `Nc1ncnc2c1nc(SCc1cccnc1)n2[C@@H]1O[C@@H]2COP(=O)(O)O[C@H]2[C@H]1O`, for which the I50 in assay [1] was determined as 100 µM. For the same molecule, the Hydrolysis in assay [2] was less than 0.05.

Turning to `Cc1ccccc1Sc1nc2c(N)ncnc2n1[C@@H]1O[C@@H]2COP(=O)(O)O[C@H]2[C@H]1O`, in assay [1], the I50 came to 29 µM. This molecule displayed a Hydrolysis in assay [2] of less than 0.05.

`CSc1ncnc2c1ncn2[C@@H]1O[C@@H]2COP(=O)(O)O[C@H]2[C@H]1O` came in with an I50 in assay [1] of 80 µM. In addition, the Hydrolysis in assay [2] was 0.46.

In assay [1], `O=P1(O)OC[C@H]2O[C@@H](n3c(Sc4ccc(Cl)cc4)nc4c(N5CCCCC5)ncnc43)[C@H](O)[C@@H]2O1` gave an I50 of 10 µM. The Hydrolysis in assay [2] is less than 0.05.

`CCCCNc1ncnc2c1ncn2[C@@H]1O[C@@H]2COP(=O)(O)O[C@H]2[C@H]1O`: the I50 in assay [1] was 33 µM. The molecule further displayed a Hydrolysis in assay [2] of 0.21.

The molecule `O=P1(O)OC[C@H]2O[C@@H](n3c(SCc4ccccc4)nc4c(N5CCCCC5)ncnc43)[C@H](O)[C@@H]2O1` had an I50 in assay [1] of 4.8 µM. Moreover, the Hydrolysis in assay [2] is less than 0.05.

Molecule `Cc1ccc(CSc2nc3c(N)ncnc3n2[C@@H]2O[C@@H]3COP(=O)(O)O[C@H]3[C@H]2O)cc1` had an I50 in assay [1] of 13 µM. The molecule also registered a Hydrolysis in assay [2] of less than 0.05.

As for `CC(C)CCNc1ncnc2c1nc(SCc1ccccc1)n2[C@@H]1O[C@@H]2COP(=O)(O)O[C@H]2[C@H]1O`, the I50 in assay [1] was determined as 2 µM. For the same molecule, the Hydrolysis in assay [2] was less than 0.05.

For `Nc1nc2c(Cl)ncnc2n1[C@@H]1O[C@@H]2COP(=O)(O)O[C@H]2[C@H]1O`, the I50 in assay [1] worked out at 200 µM. The molecule also showed a Hydrolysis in assay [2] of 0.74.

The molecule `CCCN(CCC)c1ncnc2c1nc(SCc1ccccc1)n2[C@@H]1O[C@@H]2COP(=O)(O)O[C@H]2[C@H]1O` registered a Hydrolysis in assay [2] of less than 0.05.

For `O=P1(O)OC[C@H]2O[C@@H](n3c(Br)nc4c(NCc5ccccc5)ncnc43)[C@H](O)[C@@H]2O1`, in assay [1], the I50 turned out to be 61 µM. The molecule also yielded a Hydrolysis in assay [2] of less than 0.05.

`COc1ccc(CSc2nc3c(N)ncnc3n2[C@@H]2O[C@@H]3COP(=O)(O)O[C@H]3[C@H]2O)cc1` gave an I50 in assay [1] of 30 µM. In assay [2], this molecule showed a Hydrolysis of less than 0.05.

On to `O=P1(O)OC[C@H]2O[C@@H](n3cnc4c(NCc5ccccc5)ncnc43)[C@H](O)[C@@H]2O1`, for which the I50 in assay [1] turned out to be 130 µM. The Hydrolysis in assay [2] came to 0.3.

For `CCN(CC)c1ncnc2c1nc(N(CC)CC)n2[C@@H]1O[C@@H]2COP(=O)(O)O[C@H]2[C@H]1O`, the I50 in assay [1] amounted to 13 µM. Moreover, the Hydrolysis in assay [2] is less than 0.05.

On to `CCCCNc1ncnc2c1nc(Sc1ccc(Cl)cc1)n2[C@@H]1O[C@@H]2COP(=O)(O)O[C@H]2[C@H]1O`, for which the Hydrolysis in assay [2] is less than 0.05.

The molecule `CSc1nc2c(NCc3ccccc3)ncnc2n1[C@@H]1O[C@@H]2COP(=O)(O)O[C@H]2[C@H]1O` displayed an I50 in assay [1] of 17 µM. The molecule further displayed a Hydrolysis in assay [2] of 0.19.
